{"source": "patent EP0279787A1", "about": "“Pharmaceutical compositions with synergistic antisecretory action for the healing of gastroduodenal ulcer” (ISTITUTO DE ANGELI S.p.A., priority 1987, dated 1988)", "test_system": "gastric acid secretion", "assay": "Lumen perfused stomach of the anaesthetized rat: inhibition of acid secretion evoked by histamine plus acetylcholine", "assay_type": "in vivo", "details": "drug alone", "protocol": "Experiments in lumen perfused stomach of the anaesthetized rat were performed, evoking acid secretion by histamin (0.5 mg/kg/h i.v.) and acetylcholine (0.5 mg/kg/h i.v.) given in combination. These two combined secretagogues evoked a response which was about 80% of the maximal effect achievable by maximally effective dose of either acetylcholine (8 mg/kg/h i.v.) or histamine (8 mg/kg/h i.v.) alone.\nAs soon as a steady level of acid output was reached, a combination of mifentidine/pirenzepine (1:10), or of DA-5047/pirenzepine (1:10) under the form of the compositions of the present invention, or mifentidine, DA-5047 and pirenzepine alone were administered intravenously. Each dose was administered to 8 animals.\nThe obtained data were submitted to linear regression analysis in order to calculate the dose inhibiting 50% (ED₅₀) the response of which is reported in the following table II: […]", "data": [{"smiles": "CC(C)NC=Nc1ccc(-c2c[nH]cn2)cc1", "note": "[Mifentidine, N-isopropyl-Nʹ-[4-(imidazol-4-yl)phenyl]-formamidines]", "values": [{"measurement": "Percent inhibition", "setting": "dose 20 µg/kg i.v.", "result": 20, "unit": "%"}, {"measurement": "Percent inhibition", "setting": "dose 40 µg/kg i.v.", "result": 36, "unit": "%"}, {"measurement": "Percent inhibition", "setting": "dose 80 µg/kg i.v.", "result": 58, "unit": "%"}]}, {"smiles": "Cc1nc(-c2ccc(N=CNC(C)C)cc2)c[nH]1", "note": "[DA-5047, N-isopropyl-Nʹ-[4-(2- -methyl-imidazol-4-yl)phenyl]-formamidine]", "values": [{"measurement": "Percent inhibition", "setting": "dose 20 µg/kg i.v.", "result": 21, "unit": "%"}, {"measurement": "Percent inhibition", "setting": "dose 40 µg/kg i.v.", "result": 34, "unit": "%"}, {"measurement": "Percent inhibition", "setting": "dose 80 µg/kg i.v.", "result": 52, "unit": "%"}]}, {"smiles": "CN1CCN(CC(=O)N2c3ccccc3C(=O)Nc3cccnc32)CC1", "note": "[Pirenzepine, reference compound]", "values": [{"measurement": "Percent inhibition", "setting": "dose 200 µg/kg i.v.", "result": 28, "unit": "%"}, {"measurement": "Percent inhibition", "setting": "dose 400 µg/kg i.v.", "result": 46, "unit": "%"}, {"measurement": "Percent inhibition", "setting": "dose 800 µg/kg i.v.", "result": 62, "unit": "%"}]}]}
